# Laboratory results as given in ChEMBL document CHEMBL4673394, “Discovery of a Series of Pyrazinone RORγ Antagonists and Identification of the Clinical Candidate BI 730357” (ACS Med Chem Lett, 2021).
# Tests used:
# [1] = Oral bioavailability in Wistar Han rat at 3 mg/kg measured at 15 to 1440 mins; type: ADME, organism-based; details: in vivo, time 15-1440 min
# [2] = Clearance in Wistar Han rat at 1 mg/kg, iv measured at 5 to 1440 mins relative to hepatic blood flow; type: ADME, organism-based; details: in vivo, time 5-1440 min
# [3] = Permeability in human Caco2 cells; type: ADME, cell-based; details: Caco-2, read-out: permeability
compound,measurement,setting,value
CC[C@@H](C)n1c(=O)c(NCc2ccc(S(=O)(=O)CC)cn2)nc2cnc(-c3c(OC)ncnc3C3CC3)nc21,bioavailability,[1],20%
same,CL,[2],42%
CCS(=O)(=O)c1ccc(CNc2nc3cnc(-c4c(OC)ncnc4C4CC4)nc3n([C@@H](C)C3CC3)c2=O)nc1,CL,[2],56%
CCS(=O)(=O)c1ccc(CNc2nc3cnc(-c4c(OC)ncnc4C4CC4)nc3n(C(C)C)c2=O)nc1,bioavailability,[1],70%
same,CL,[2],32%
CCS(=O)(=O)c1ccc(CNc2nc3cnc(-c4c(OC)ncnc4C4CC4)nc3n([C@@H](C)C(F)(F)F)c2=O)nc1,CL,[2],10%
CCS(=O)(=O)c1ccc(CNc2nc3cnc(-c4c(OC)ncnc4C4CC4)nc3n([C@H](C)C3CC3)c2=O)nc1,CL,[2],44%
Cc1ncnc(C2CC2)c1-c1ncc2nc(NCc3ccc(S(C)(=O)=O)cn3)c(=O)n([C@@H](C)C3CC3)c2n1,Papp,[3],110 ×10⁻⁶ cm/s
same,bioavailability,[1],70%
same,CL,[2],16%
CCS(=O)(=O)c1ccc(CNc2nc3cnc(-c4c(C)ncnc4C4CC4)nc3n([C@@H](C)C3CC3)c2=O)cn1,bioavailability,[1],61%
same,CL,[2],19%
CCS(=O)(=O)c1cnc(CNc2nc3cnc(-c4c(C)ncnc4C4CC4)nc3n([C@@H](C)C3CC3)c2=O)nc1,CL,[2],29%
CNS(=O)(=O)c1ccc(CNc2nc3cnc(-c4c(C)ncnc4C4CC4)nc3n([C@@H](C)C3CC3)c2=O)nc1,CL,[2],57%
CCS(=O)(=O)c1ccc(CNc2nc3cnc(-c4c(C)ncnc4C4CC4)nc3n([C@@H](C)C3CC3)c2=O)nc1,CL,[2],23%
CCS(=O)(=O)c1ccc(CNc2nc3cnc(-c4c(C)ncnc4C4CC4)nc3n(C(C)C)c2=O)nc1,bioavailability,[1],71%
same,CL,[2],16%
CCS(=O)(=O)c1ccc(CNC(=O)N2CC(C)(C)c3nc(-c4c(OC)ncnc4C4CC4)ccc32)cc1,bioavailability,[1],90%
same,CL,[2],34%
